Data reported in patent US7754654B2, “Substituted spirocyclic ketoenols” (Bayer CropScience AG, priority 2002, dated 2010).

Tests used:
Assay type in all cases: in vivo
[1] = system: larva (L3) of the army worm (Spodoptera frugiperda); test: Spodoptera frugiperda test/synthetic feed; conditions: 1000 ppm; synthetic feed
Description: To produce a suitable preparation of active compound, 1 part by weight of active compound is mixed with the stated amounts of solvent and emulsifier, and the concentrate is diluted with emulsifier-containing water to the desired concentration. A stated amount of the preparation of active compound of the desired concentration is pipetted onto a standardized amount of synthetic feed. In 6 replications, in each case one larva (L3) of the army worm (Spodoptera frugiperda) is placed onto the feed. After the desired period of time, the kill in % is determined. 100% means that all animals have been killed; 0% means that none of the animals have been killed.

[2] = system: Abutilon; test: Post-emergence test; conditions: 250 g of ai/ha, after three weeks
Description: (§1) To produce a suitable preparation of active compound, 1 part by weight of active compound is mixed with the stated amount of solvent, the stated amount of emulsifier is added and the concentrate is diluted with water to the desired concentration. Test plants of a height of 5-15 cm are sprayed with the preparation of active compound such that the particular amounts of active compound desired are applied per unit area. The concentration of the spray liquor is chosen such that the particular amounts of active compound desired are applied in 1000 l of water/ha. After three weeks, the degree of damage to the plants is rated in % damage in comparison to the development of the untreated control. The figures denote: • 0%=no effect (like untreated control) • 100%=total destruction

[3] = system: Sinapis; test: Post-emergence test; conditions: 250 g of ai/ha, after three weeks
Description: as §1

[4] = system: Amaranthus; test: Post-emergence test; conditions: 250 g of ai/ha, after three weeks
Description: as §1

[5] = system: Galium; test: Post-emergence test; conditions: 250 g of ai/ha, after three weeks
Description: as §1

[6] = system: Alopecurus; test: Post-emergence test; conditions: 250 g of ai/ha, after three weeks
Description: as §1

[7] = system: Setaria; test: Pre-emergence test; conditions: after three weeks
Description: (§2) To produce a suitable preparation of active compound, 1 part by weight of active compound is mixed with the stated amount of solvent, the stated amount of emulsifier is added and the concentrate is diluted with water to the desired concentration. Seeds of the test plants are sown in normal soil. After about 24 hours, the soil is sprayed with the preparation of active compound such that the particular amounts of active compound desired are applied per unit area. The concentration of the spray liquor is chosen such that the particular amounts of active compound desired are applied in 1000 l of water/ha. After three weeks, the degree of damage to the plants is rated in % damage in comparison to the development of the untreated control. The figures denote: • 0%=no effect (like untreated control) • 100%=total destruction

[8] = system: Avena fatua; test: Pre-emergence test; conditions: after three weeks
Description: as §2

[9] = system: Sugar beet; test: Pre-emergence test; conditions: 250 g of ai/ha, after three weeks
Description: as §2

[10] = system: Sinapis; test: Pre-emergence test; conditions: after three weeks
Description: as §2

[11] = system: Amaranthus; test: Pre-emergence test; conditions: 250 g of ai/ha, after three weeks
Description: as §2

[12] = system: Echinochloa; test: Pre-emergence test; conditions: 250 g of ai/ha, after three weeks
Description: as §2

[13] = system: Alopecurus; test: Pre-emergence test; conditions: after three weeks
Description: as §2

[14] = system: larvae of the mustard beetle (Phaedon cochleariae); test: Phaedon larvae test (cabbage leaf dip); conditions: 1000 ppm
Description: (§3) To produce a suitable preparation of active compound, 1 part by weight of active compound is mixed with the stated amounts of solvent and emulsifier, and the concentrate is diluted with emulsifier-containing water to the desired concentration. Cabbage leaves (Brassica oleracea) are treated by being dipped into the preparation of active compound of the desired concentration and are populated with larvae of the mustard beetle (Phaedon cochleariae) while the leaves are still moist. After the desired period of time, the kill in % is determined. 100% means that all beetle larvae have been killed; 0% means that none of the beetle larvae have been killed.

[15] = system: Setaria; test: Post-emergence test; conditions: 250 g of ai/ha, after three weeks
Description: as §1

[16] = system: Sugar beet; test: Post-emergence test; conditions: 250 g of ai/ha, after three weeks
Description: as §1

[17] = system: Cyperus; test: Post-emergence test; conditions: 250 g of ai/ha, after three weeks
Description: as §1

[18] = system: peach aphid (Myzus persicae); test: Myzus test (cabbage leaf dip); conditions: 500 ppm
Description: as §3, with “oleracea) which are heavily infested by the peach aphid (Myzus persicae)” for “oleracea)”, “concentration.” for “concentration and are populated with larvae of the mustard beetle (Phaedon cochleariae) while the leaves are still moist.”, “aphids” for “beetle larvae”

[19] = system: Botrytis cinerea; test: Botrytis test (bean)/protective; conditions: 500 g/ha, protective, 2 days after inoculation
Description: To produce a suitable preparation of active compound, 1 part by weight of active compound is mixed with the stated amounts of solvent and emulsifier, and the concentrate is diluted with water to the desired concentration. To test for protective activity, young plants are sprayed with the preparation of active compound at the stated application rate. After the spray coating has dried on, 2 small pieces of agar colonized by Botrytis cinerea are placed onto each leaf. The inoculated plants are placed in a dark chamber at about 20° C. and 100% relative atmospheric humidity. 2 days after the inoculation, the size of the infested areas of the leaves is evaluated. 0% means an efficacy which corresponds to that of the control, whereas an efficacy of 100% means that no infection is observed.

[20] = system: greenhouse red spider mite (Tetranychus urticae); test: Tetranychus test (OP-resistant/dip treatment); conditions: 100 ppm; bean plants dipped
Description: To produce a suitable preparation of active compound, 1 part by weight of active compound is mixed with the stated amounts of solvent and emulsifier, and the concentrate is diluted with emulsifier-containing water to the desired concentration. Bean plants (Phaseolus vulgaris) which are heavily infested by all stages of the greenhouse red spider mite (Tetranychus urticae) are dipped into a preparation of active compound of the desired concentration. After the desired period of time, the effect in % is determined. 100% means that all spider mites have been killed; 0% means that none of the spider mites have been killed.

[21] = system: Avena fatua; test: Post-emergence test; conditions: 250 g of ai/ha, after three weeks
Description: as §1

[22] = system: Maize; test: Pre-emergence test; conditions: 125 g of ai/ha, after three weeks
Description: as §2

[23] = system: Lolium; test: Pre-emergence test; conditions: 125 g of ai/ha, after three weeks
Description: as §2

[24] = system: Ipomoea; test: Pre-emergence test; conditions: 125 g of ai/ha, after three weeks
Description: as §2

[25] = system: Digitaria; test: Pre-emergence test; conditions: 125 g of ai/ha, after three weeks
Description: as §2

[26] = system: Eriochloa; test: Pre-emergence test; conditions: 125 g of ai/ha, after three weeks
Description: as §2

Cc1ccc(C)c(C2=C(OC(=O)C(C)C)C3(CCC(OCc4ccccc4)CC3)NC2=O)c1 (centres unmarked) [Ex. I-1-b-1]
Kill rate in % after 7d [1]: 100%

Cc1cc(C)c(C2=C(O)C3(CCC(OCc4ccc(Cl)cc4)CC3)NC2=O)c(C)c1 (single isomer, unassigned) [Ex. I-1-a-27]
% damage [2]: 80%
% damage [3]: 80%
% damage [4]: 90%
% damage [5]: 70%
% damage [6]: 90%

Cc1cc(C)c(C2=C(O)C3(CCC(OCC4CCCO4)CC3)NC2=O)c(C)c1 (single isomer, unassigned) [Ex. I-1-a-7]
% damage ([7]; 250 g of ai/ha): 100%
% damage ([8]; 250 g of ai/ha): 95%
% damage [9]: 0%
% damage ([10]; 250 g of ai/ha): 90%
% damage [11]: 95%
% damage [12]: 99%
% damage ([13]; 250 g of ai/ha): 80%
Kill rate in % after 7d [14]: 100%

Cc1cc(C)c(C2=C(OC(=O)C(C)C)C3(CCC(OCc4ccccc4)CC3)NC2=O)c(C)c1 (single isomer, unassigned) [Ex. I-1-b-2]
% damage [15]: 95%
% damage [16]: 0%
% damage [3]: 70%
% damage [17]: 80%
% damage [6]: 80%

Cc1ccc(-c2ccc(Cl)cc2)cc1C1=C(O)C2(CCC(OCc3ccc(Cl)cc3)CC2)NC1=O (single isomer, unassigned) [Ex. I-1-a-30]
Kill rate in % after 6d [18]: 100%
% efficacy [19]: 100%
Kill rate in % after 7d [20]: 99%

CCOC(=O)OC1=C(c2c(C)cc(C)cc2C)C(=O)NC12CCC(OCc1ccccc1)CC2 (single isomer, unassigned) [Ex. I-1-c-3]
% damage ([7]; 125 g of ai/ha): 100%
% damage ([8]; 125 g of ai/ha): 70%
% damage ([10]; 125 g of ai/ha): 90%
% damage ([13]; 125 g of ai/ha): 90%

Cc1cc(C)c(C2=C(O)C3(CCC(OCc4cccc(Cl)c4)CC3)NC2=O)c(C)c1 (single isomer, unassigned) [Ex. I-1-a-23]
% damage [15]: 95%
% damage [2]: 80%
% damage [21]: 80%
% damage [16]: 0%
% damage [3]: 90%
% damage [4]: 90%
% damage ([7]; 125 g of ai/ha): 95%
% damage [22]: 0%
% damage [23]: 80%
% damage [24]: 80%
% damage [25]: 100%
% damage [26]: 99%
